Assay results taken from patent US9035057B2, “Dihydroethidine analogues and uses thereof” (Washington University, priority 2009, dated 2015).

Key:
[1] = Selective reactivity with superoxide generated by xanthine oxidase/hypoxanthine, absence or presence of SOD; format: biochemical; settings: for specificity for superoxide: FIG. 3, change in fluorescent units from baseline; for oxidation by superoxide / effect of SOD on oxidation by superoxide: xanthine oxidase/hypoxanthine; for oxidation by superoxide: absence of SOD, DHE concentration double that of the WC compounds; for effect of SOD on oxidation by superoxide: presence of SOD; for specificity for superoxide, comparison among compounds: levels of hydroxyl radical very supraphysiological
Protocol: (§1) This example illustrates a comparison of compounds for selective reactivity with superoxide radical. In these experiments, compounds WC-63, WC-77 and WC-81 were exposed to superoxide generated by xanthine oxidase/hypoxanthine in the absence or presence SOD, and were evaluated similarly as compound C1 in Example 10. The concentration of DHE for all experiments was double that of compounds WC-63, WC-77 and WC-81. […] All of the compounds were also exposed to H202 in the presence of horseradish peroxidase (HRP) to generate hydroxyl radical.

[2] = Exposure to H202 in the presence of horseradish peroxidase (HRP), fluorescence; format: biochemical; settings: H202 with HRP, supraphysiologic levels
Protocol: as §1

[3] = Exposure to H202 alone, fluorescence; format: biochemical
Protocol: as §1

[4] = Tissue uptake of the tracers, fluorescence lifetime imaging; format: in vivo, mice; settings: FIG. 8
Text: This example illustrates tissue uptake of the tracers. In these experiments, tracer lifetimes in mice were studied by fluorescence imaging of DHE and compounds WC-63, WC-77 and WC-81.

[5] = Fluorescence from oxidation of compound WC-81 in mouse brain images; format: in vivo, mice; settings: FIG. 7
Protocol: This example illustrates fluorescence from oxidation of Compound WC-81. In these experiments, compound WC-81 was administered to mice, and images of mouse brains were then obtained (FIG. 7).

[6] = Kinetics of compound WC-81 in brain in vivo, eXplore Optix-MX2 fluorescence scanner; set-up: species or system mouse
Protocol: In these experiments, an anesthetized mouse was placed in an eXplore Optix™-MX2 scanner, and an initial scan was completed for background fluorescence (T=0). A single intraperitoneal injection of 50 mg/kg of compound WC-81 in 50% DMSO, 50% saline was performed, and the animal was rescanned at 10 minutes. It took approximately 5 minutes to complete the scan. The mouse was removed, allowed to recover, then re-anesthetized and rescanned at 1 hour. A similar recovery and rescan was performed at 2 hours. The mouse was pretreated with subanesthetic doses of ketamine to raise superoxide levels. Cortical (left and right) and cerebellar activity are depicted in FIG. 6.

[7] = Plate reader oxidation of compound C1 with peroxide; format: biochemical; settings: H202 1 mM
Protocol: (§2) This example illustrates oxidation rates of Compound C1 under various conditions. In these experiments, fluorescence intensity of Compound C1 was evaluated in a plate reader assay, and the fluorescence intensity over time of the oxidation rate of compound C1 was evaluated. […] Excitation was done at 480 nm and emission filtering was >590 nm. The following reaction conditions were used: [table]

[8] = Plate reader oxidation of compound C1 with H202 and horseradish peroxidase; format: biochemical; settings: H202 1 mM, HRP 0.2 U/ml
Protocol: as §2

[9] = In vivo oxidation in brains of ketamine-pretreated mice, confocal microscopy; settings: for detection of superoxide produced by ketamine treatment (fluorescence of oxidized form in mouse brain): ketamine pretreatment
Protocol: In these experiments, mice were pretreated for several days with subanesthetic doses of ketamine, which produces a large increase in neuronal superoxide generation (Behrens et al, 2007). The mice were injected with 27 mg/kg of compound C1 and sacrificed 16 hours later. Brains were sliced and imaged by confocal microscopy. The images of the brains sliced 16 hours after administration of compound C1 are depicted in FIG. 4. […] The quantitative measures of fluorescence of the oxidized forms of DHE and compound C1 in mouse brain are depicted in FIG. 5. When compound C1 was administered to transgenic mice overexpressing SOD, the increased fluorescence from the ketamine pretreatment was abolished, consistent with the SOD removal of superoxide (FIG. 5).

[10] = Plate reader oxidation rate of compound C1, superoxide production with hypoxanthine and xanthine oxidase (XO system); format: biochemical
Protocol: as §2

[11] = Comparative oxidation of C1 and DHE in the presence of oxidizers, single wavelength fluorescence platereader study; format: biochemical; settings: elevations with superoxide but not with peroxide (H202), hydroxyl radical (HO—) or peroxynitrate (ONOO—); FIG. 2
Protocol: This example illustrates comparative oxidation of C1 and DHE. In these experiments, fluorescence of C1 or DHE were determined in the presence of oxidizers. […] In this single wavelength fluorescence platereader study, it should be noted that the ratio of fluorescence increase in a study cannot be compared between DHE and compound C1 since their non-oxidized forms have fluorescence and the light spectra overlap to a variable degree with the oxidized forms.

specificity for superoxide [1] | oxidation by superoxide [1] | effect of SOD on oxidation by superoxide [1] | oxidation in the presence of hydroxyl radical [2] | specificity for superoxide, comparison among compounds [1] | SMILES | oxidation with H202 [3] | tissue presence of tracer [4] | detection of superoxide produced by ketamine treatment (fluorescence of oxidized form in mouse brain) ([9]; FIG. 5) | other results
high specificity for superoxide | oxidized by superoxide | fully blocked oxidation | generally no evidence of oxidation | – | COc1ccc(C2c3cc(N)ccc3-c3ccc(N)cc3N2C)cc1 (stereo not drawn) [WC-63] | generally no evidence of oxidation | present in the brain and organs in the chest | – | –
high specificity for superoxide | oxidized by superoxide | fully blocked oxidation | partial oxidation | highly selective for superoxide | CN1c2cc(N)ccc2-c2ccc(N)cc2C1c1ccc(OCCF)cc1 (stereo not drawn) [WC-81] | generally no evidence of oxidation | present in the brain and organs in the chest | – | localization of fluorescence from oxidation in brain [5]: localized to cerebral microvessels and to the extracellular space around certain cortical or hippocampal neurons; stability of the product, comparison among compounds [1]: most stable and intact product; brain fluorescence levels at 120 minutes ([6]; 50 mg/kg intraperitoneal, 120 minutes): fall in levels; time by which plateau of brain fluorescence was reached ([6]; 50 mg/kg intraperitoneal, cortical and cerebellar activity): ≤ 60 min; brain penetration ([6]; single intraperitoneal injection 50 mg/kg in 50% DMSO, 50% saline, ketamine pretreated mouse, FIG. 6): penetrated the brain
high specificity for superoxide | oxidized by superoxide | fully blocked oxidation | generally no evidence of oxidation | most specific compound for superoxide | CN1c2cc(N)ccc2-c2ccc(N)cc2C1c1ccc(OCc2cn(CCF)nn2)cc1 (stereo not drawn) [WC-77] | generally no evidence of oxidation | – | – | –
– | – | – | – | – | CN1c2cc(N)ccc2-c2ccc(N)cc2C1c1ccccc1 (stereo not drawn) [C1] | – | – | detected a large increase | oxidation with peroxide [7]: no oxidation; oxidation with H202 with horseradish peroxidase [8]: no oxidation; pattern of brain fluorescence ([9]; ketamine pretreated mice, 27 mg/kg, sacrificed 16 hours later, FIG. 4): consistent with the presence of intracellular oxidized compound C1; increased fluorescence from ketamine pretreatment in transgenic mice overexpressing SOD ([9]; transgenic mice overexpressing SOD, FIG. 5): abolished; effect of superoxide dismutase (SOD) on oxidation ([10]; XO system plus SOD 575 U/ml): completely removed; effect of catalase on oxidation ([10]; XO system plus catalase 60 U/ml): did not effect; rate of conversion by oxidation compared with DHE ([10]; data not shown): slightly faster than DHE; oxidation under superoxide production ([10]; hypoxanthine and xanthine oxidase (XO system)): oxidized rapidly; reactivity and selectivity for superoxide (fluorescence intensity over time) ([10]; plate reader, excitation 480 nm, emission >590 nm, FIG. 1): both reactivity and selectivity for superoxide; selective oxidation (fluorescence) in the presence of oxidizers [11]: selective oxidation similar to DHE

SMILES | specificity for superoxide [1] | oxidation by superoxide [1] | effect of SOD on oxidation by superoxide [1] | oxidation in the presence of hydroxyl radical [2] | specificity for superoxide, comparison among compounds [1] | oxidation with H202 [3] | tissue presence of tracer [4] | detection of superoxide produced by ketamine treatment (fluorescence of oxidized form in mouse brain) ([9]; FIG. 5) | other results
CCN1c2cc(N)ccc2-c2ccc(N)cc2C1c1ccccc1 (stereo not drawn) [DHE, 2,7-diamino-10-ethyl-9-phenyl-9,10-dihydrophenanthradine, reference compound] | – | oxidized by superoxide | fully blocked oxidation | – | – | – | present in the brain and organs in the chest | detected a large increase | –
